From US20250002535A1, “PEPTIDE HYDROGEL COMPRISING HYDROPHILIC AZIDE-CONTAINING AMINO ACID AND ITS USE” (The United States of America, as represented by the …, priority 2023, published 2025) come the findings set out here.

Numbered stars: 1 amine (or outer) side, 2 acyl side, 3 side chain; on linkers, the order of the positions; unused ones are H or OH. Square brackets hold non-standard residues; d marks the D form. Peptide text beside a SMILES is read from it. X1 = [N-]=[N+]=NCCNCC[C@H](N[*:1])C(=O)[*:2]; Lys(N3) = [N-]=[N+]=NCCCC[C@H](N)C(=O)O Where only a bound is given, the exact number is not on record here.

A short description of data set [1]: intrinsic hydrophilicity/hydrophobicity coefficient ΔtR(Gly) by RP-HPLC (procedure of Hodges et al.). The class given is physicochemical. As to conditions: RP-HPLC retention of guest-residue peptide versus Gly standard; positive = more hydrophobic than Gly.
Protocol: We then determined the intrinsic hydrophilicity/hydrophobicity coefficients (ΔtR(Gly)) for residue 1, ^N3K, and Lys according to the procedure of Hodges et al. to gain comparative insight into the hydrophilic nature of the new residue. […] Amino acids with side-chains more hydrophobic than Gly have positive ΔtR(Gly) values, and vice-versa.
RP-HPLC was performed with a solvent system of 0.1% TFA in Milli-Q H2O (Standard A) and 0.1% TFA in 9:1 CH3CN/H2O (Standard B). Analytical RPHPLC was performed on an Agilent 1200 series HPLC, using a Vydac 218TP C18 column (250×4.6 mm, 5 μm), with a linear gradient from 0 to 100% B at a rate of 1% B per min, at a flow rate of 0.25 mL/min and a column temperature of 40° C.
Data set [2] can be described thus: SPAAC ligation kinetics with BCN, second order conditions, NMR. To be noted: methanol at 25° C. On the procedure:
The reaction kinetics of amino acid 1 in SPAAC with two strained cyclooctynes, DBCO and BCN, were determined in comparison with ^N3K. First, peptides 12 and 13, which contain residue 1 and ^N3K respectively, were independently ligated to PEG-functionalized DBCO. Rates were determined under pseudo-first order conditions by UV-vis spectroscopy at 308 nm (FIGS. 3A-3C, 7, 8). The calculated second order rate constant for peptide 12 was 0.34 M^−1 s^−1 in HBS buffer, pH 7.4 at 25° C., which is similar to previously reported rate constants for other azides. The ligation rate of peptide 12 is slightly slower than peptide 13 ([…]), which may be due to hydrophobic interactions between the ^N3K side-chain and the aromatic DBCO, facilitating ligation. […] We then determined the reaction rate of Boc-protected amino acid 2 itself with BCN in methanol at 25° C. […]
Solutions of BCN and amino acids were prepared in MeOD. The reaction between BCN and amino acids was measured under second order conditions using NMR. […] The reaction was monitored by ^1H NMR. Concentration of product ([P]) at each time point was determined by the integration of red proton in the product using blue proton as internal standard. The value of k2t was calculated by equation 1. With Prism software, second order rate constants, k2, was calculated by linear regression between k2t and time. […]

A short description of data set [3]: solubility in water by UV-vis spectroscopy before and after centrifugation. The class given is physicochemical. To be noted: 20 mg/mL was the highest concentration tested. On the procedure: Residue 1's ability to enhance solubility was tested via the amphiphilic peptide 16, which contains 7 copies of 1 along with 9 hydrophobic Val residues. Here, we directly measured solubility via UV-vis spectroscopy of aqueous preparations of peptides before and after centrifugation (FIG. 2B). Peptide 16 (FIG. 5) was fully soluble in water at 20 mg/mL, the highest concentration tested, as was its Lys-containing control peptide 18. […] Further, peptides 16 and 18 had nearly identical RP-HPLC chromatograms (FIG. 6) indicating similar hydrophilic character. In contrast, the ^N3K-containing peptide 17 was completely insoluble in water at only 1 mg/mL, showing extensive light scattering before centrifugation and no scattering after, due to sedimentation of aggregates.

A short description of data set [4]: solubility of peptide powder in solvents. Format: physicochemical. The text has this:
Peptide 17: Insoluble powder in water and acetonitrile. It is soluble in Trifluoroethanol.

With `NCCCC[C@H](N)C(=O)O` [Lys], the “intrinsic hydrophilicity/hydrophobicity coefficient ΔtR(Gly)” value in data set [1] was −0.04.

With `[N-]=[N+]=NCCNCC[C@H](N)C(=O)O` [compound 1], the “intrinsic hydrophilicity/hydrophobicity coefficient ΔtR(Gly)” value in data set [1] worked out at 1.4.

In the case of `CC(C)(C)OC(=O)N(CCN=[N+]=[N-])CC[C@H](NC(=O)OCC1c2ccccc2-c2ccccc21)C(=O)O` [compound 2, (S)-2-((((9H-fluoren-9-yl)methoxy)carbonyl)amino)-4-((2-azidoethyl)(tertbutoxycarbonyl)-amino)butanoic acid], in data set [2], the “second order rate constant k2 with BCN” value came out at 0.28 M⁻¹ s⁻¹.

For orientation: solubility means how much of the substance goes into solution per volume. The low end stands for little dissolved substance, the high end for much dissolved substance. As for `CC(C)[C@H](N)C(=O)N[C@@H](CCNCCN=[N+]=[N-])C(=O)N[C@H](C(=O)N[C@@H](CCNCCN=[N+]=[N-])C(=O)N[C@H](C(=O)N[C@@H](CCNCCN=[N+]=[N-])C(=O)N[C@H](C(=O)N[C@@H](CCNCCN=[N+]=[N-])C(=O)N[C@H](C(=O)N1CCC[C@@H]1C(=O)N1CCC[C@H]1C(=O)N[C@H](C(=O)N[C@@H](CCNCCN=[N+]=[N-])C(=O)N[C@H](C(=O)N[C@@H](CCC(=O)O)C(=O)N[C@H](C(=O)N[C@@H](CCNCCN=[N+]=[N-])C(=O)N[C@H](C(=O)N[C@@H](CCNCCN=[N+]=[N-])C(=O)N[C@H](C(N)=O)C(C)C)C(C)C)C(C)C)C(C)C)[C@@H](C)O)C(C)C)C(C)C)C(C)C)C(C)C` [peptide 16, VZVZVZVZV^DPPTZVEVZVZV-NH2] (H-V[X1]V[X1]V[X1]V[X1]V[dP]PT[X1]VEV[X1]V[X1]V-NH2), the solubility in data set [3] was no less than 20 mg/mL.

`CC(C)[C@H](N)C(=O)N[C@@H](CCCCN=[N+]=[N-])C(=O)N[C@H](C(=O)N[C@@H](CCCCN=[N+]=[N-])C(=O)N[C@H](C(=O)N[C@@H](CCCCN=[N+]=[N-])C(=O)N[C@H](C(=O)N[C@@H](CCCCN=[N+]=[N-])C(=O)N[C@H](C(=O)N1CCC[C@@H]1C(=O)N1CCC[C@H]1C(=O)N[C@H](C(=O)N[C@@H](CCCCN=[N+]=[N-])C(=O)N[C@H](C(=O)N[C@@H](CCC(=O)O)C(=O)N[C@H](C(=O)N[C@@H](CCCCN=[N+]=[N-])C(=O)N[C@H](C(=O)N[C@@H](CCCCN=[N+]=[N-])C(=O)N[C@H](C(N)=O)C(C)C)C(C)C)C(C)C)C(C)C)[C@@H](C)O)C(C)C)C(C)C)C(C)C)C(C)C` [peptide 17] (H-V[Lys(N3)]V[Lys(N3)]V[Lys(N3)]V[Lys(N3)]V[dP]PT[Lys(N3)]VEV[Lys(N3)]V[Lys(N3)]V-NH2) had a solubility in data set [3] of less than 1 mg/mL. In data set [4], the “solubility in Trifluoroethanol” value is recorded as “soluble”; the “solubility in water and acetonitrile” value was “Insoluble”.

As to `CC(C)[C@H](N)C(=O)N[C@@H](CCCCN)C(=O)N[C@H](C(=O)N[C@@H](CCCCN)C(=O)N[C@H](C(=O)N[C@@H](CCCCN)C(=O)N[C@H](C(=O)N[C@@H](CCCCN)C(=O)N[C@H](C(=O)N1CCC[C@@H]1C(=O)N1CCC[C@H]1C(=O)N[C@H](C(=O)N[C@@H](CCCCN)C(=O)N[C@H](C(=O)N[C@@H](CCC(=O)O)C(=O)N[C@H](C(=O)N[C@@H](CCCCN)C(=O)N[C@H](C(=O)N[C@@H](CCCCN)C(=O)N[C@H](C(N)=O)C(C)C)C(C)C)C(C)C)C(C)C)[C@@H](C)O)C(C)C)C(C)C)C(C)C)C(C)C` [peptide 18] (H-VKVKVKVKV[dP]PTKVEVKVKV-NH2; N-terminus assumed), the solubility in data set [3] is no less than 20 mg/mL.
